Experimental data from patent US20140187559A1, “INHIBITORS OF THE FIBROBLAST GROWTH FACTOR RECEPTOR” (BLUEPRINT MEDICINES CORPORATION, priority 2012, published 2014).
pIC50: −log10 of the molar value.

Columns and labels:
wild type FGFR-4 = target: T1, wild type FGFR-4 (Homo sapiens, UniProt P22455); assay: FGFR-4 wild type assay at Km (Caliper mobility shift); type: biochemical; conditions: for Ratio FGFR1/FGFR4: [IC50 for FGFR1]/[IC50 for FGFR4]; for pIC50: 400 uM ATP, 25 C, 90 minutes, read-out: FGFR4 IC50
T1 construct: purchased Carna Biosciences, Inc
Method: (§1) In order to assess the activity of chemical compounds against the relevant kinase of interest, the Caliper LifeSciences electrophoretic mobility shift technology platform is utilized. Fluorescently labeled substrate peptide is incubated in the presence dosed levels of compounds, a set concentration of kinase and of ATP, so that a reflective proportion of the peptide is phosphorylated. At the end of the reaction, the mix of phosphorylated (product) and non-phosphorylated (substrate) peptides are passed through the microfluidic system of the Caliper LabChip® EZ Reader II, under an applied potential difference. The presence of the phosphate group on the product peptide provides a difference in mass and charge between the product peptide and the substrate peptide, resulting in a separation of the substrate and product pools in the sample. As the pools pass the LEDS within the instrument, these pools are detected and resolved as separate peaks. The ratio between these peaks therefore reflects the activity of the chemical matter at that concentration in that well, under those conditions.
(§2) The reaction was stopped by the addition of 70 ul of Stop buffer (100 mM HEPES pH 7.5, 0.015% Brij 35, 35 mM EDTA and 0.2% of Coating Reagent 3 (Caliper Lifesciences)). The plate was then read on a Caliper LabChip® EZ Reader II (protocol settings: —1.9 psi, upstream voltage—700, downstream voltage—3000, post sample sip 35 s).

wild type FGFR-1 = target: T2, wild type FGFR-1 (Homo sapiens, UniProt P11362); assay: FGFR-1 wild type assay at Km (Caliper mobility shift); type: biochemical; conditions: 400 uM ATP, 25 C, 90 minutes; read-out: FGFR1 IC50
T2 construct: purchased Carna Biosciences, Inc
Method: as §1
as §2, with “EZReader 2” for “LabChip® EZ Reader II”

T1 sequence (P22455 22-802): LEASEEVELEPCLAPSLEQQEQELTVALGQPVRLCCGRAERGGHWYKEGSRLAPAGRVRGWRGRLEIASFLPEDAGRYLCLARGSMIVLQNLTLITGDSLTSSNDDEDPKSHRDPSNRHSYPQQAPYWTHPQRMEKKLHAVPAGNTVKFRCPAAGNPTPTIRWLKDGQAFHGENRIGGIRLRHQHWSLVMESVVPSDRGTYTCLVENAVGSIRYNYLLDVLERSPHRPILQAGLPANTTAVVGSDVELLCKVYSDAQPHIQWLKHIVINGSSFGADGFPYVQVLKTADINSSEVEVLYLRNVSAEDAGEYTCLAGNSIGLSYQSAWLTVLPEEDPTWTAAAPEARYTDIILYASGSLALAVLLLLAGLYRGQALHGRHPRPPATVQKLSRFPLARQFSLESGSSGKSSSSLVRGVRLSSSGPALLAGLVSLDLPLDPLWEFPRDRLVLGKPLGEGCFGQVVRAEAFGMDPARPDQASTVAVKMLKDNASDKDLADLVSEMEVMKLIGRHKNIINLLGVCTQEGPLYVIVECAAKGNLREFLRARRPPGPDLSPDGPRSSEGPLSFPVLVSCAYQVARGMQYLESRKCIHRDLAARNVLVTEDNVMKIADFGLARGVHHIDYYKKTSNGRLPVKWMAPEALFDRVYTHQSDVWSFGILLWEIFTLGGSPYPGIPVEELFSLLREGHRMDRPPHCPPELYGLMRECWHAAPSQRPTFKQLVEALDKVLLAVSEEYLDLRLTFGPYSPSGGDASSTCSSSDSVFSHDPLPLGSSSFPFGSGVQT
T2 sequence (P11362 22-822): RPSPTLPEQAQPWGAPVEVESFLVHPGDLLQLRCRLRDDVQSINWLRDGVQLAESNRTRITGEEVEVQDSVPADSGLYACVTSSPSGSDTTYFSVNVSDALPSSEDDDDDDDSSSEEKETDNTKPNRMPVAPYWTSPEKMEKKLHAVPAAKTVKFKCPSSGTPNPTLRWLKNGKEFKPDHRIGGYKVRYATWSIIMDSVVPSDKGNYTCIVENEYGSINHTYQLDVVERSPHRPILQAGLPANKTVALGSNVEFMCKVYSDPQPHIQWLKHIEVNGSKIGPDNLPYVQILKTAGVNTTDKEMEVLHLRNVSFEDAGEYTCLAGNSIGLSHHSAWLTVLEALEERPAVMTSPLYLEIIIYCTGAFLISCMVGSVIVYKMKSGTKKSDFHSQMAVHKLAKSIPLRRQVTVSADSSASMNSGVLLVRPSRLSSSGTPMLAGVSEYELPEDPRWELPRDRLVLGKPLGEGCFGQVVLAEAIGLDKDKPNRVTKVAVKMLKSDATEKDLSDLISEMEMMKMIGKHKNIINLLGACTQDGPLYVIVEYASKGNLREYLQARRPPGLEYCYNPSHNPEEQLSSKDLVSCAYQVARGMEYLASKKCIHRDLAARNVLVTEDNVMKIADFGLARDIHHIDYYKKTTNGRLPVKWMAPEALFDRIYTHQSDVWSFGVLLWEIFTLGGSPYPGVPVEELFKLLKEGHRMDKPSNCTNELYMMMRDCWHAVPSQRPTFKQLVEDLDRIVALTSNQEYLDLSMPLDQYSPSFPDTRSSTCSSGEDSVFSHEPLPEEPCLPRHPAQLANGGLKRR

| Structure (SMILES) | Ratio FGFR1/FGFR4 (wild type FGFR-4) | pIC50 (wild type FGFR-4) | pIC50 (wild type FGFR-1) |
| --- | --- | --- | --- |
| C=CC(=O)N(C)c1ncc2cc(-c3c(Cl)cccc3Cl)ccc2n1 [COMPOUND 2] | D (the ratio is ≧50 and <100) | 6.00 to 7.00 |  |
| C=CC(=O)N(C)c1ncc2c(n1)N(C)C(=O)N(c1cc(OC)cc(OC)c1)C2 [COMPOUND 5] |  | 7.00 to 8.00 |  |
| C=CC(=O)Nc1cccc(C)c1Nc1ncc(C#Cc2cc(OC)cc(OC)c2)cn1 [COMPOUND 6, N-(2-((5-((3,5-dimethoxyphenyl)ethynyl)pyrimidin-2-yl)amino)-3-methylphenyl)acrylamide] |  | 6.00 to 7.00 |  |
| C=CC(=O)N(C)c1ncc2cc(-c3c(Cl)c(OC)cc(OC)c3Cl)cnc2n1 [COMPOUND 8] | E (the ratio is ≧10 and <50) |  | 6.00 to 7.00 |
| C=CC(=O)Nc1cccc(C)c1Nc1ncc2cc(-c3cc(C(N)=O)ccc3F)ccc2n1 [COMPOUND 9] | D (the ratio is ≧50 and <100) | 6.00 to 7.00 |  |
| C=CC(=O)Nc1ccccc1Nc1nccc(N2CCCC(NS(=O)(=O)CCC)C2)n1 (stereo not drawn) [COMPOUND 11, N-(2-((4-(3-(propylsulfonamido)piperidin-1-yl)pyrimidin-2-yl)amino)phenyl)acrylamide] |  | 6.00 to 7.00 |  |
| C=CC(=O)N(C)c1ncc2cc(-c3c(Cl)c(OC)cc(OC)c3Cl)c(=O)n(C)c2n1 [COMPOUND 12] | D (the ratio is ≧50 and <100) |  | 7.00 to 8.00 |
| C=CC(=O)N(C)c1ncc2c(n1)N(C)C(=O)N(c1c(Cl)c(OC)cc(OC)c1Cl)C2 [COMPOUND 14] |  | 7.00 to 8.00 | 6.00 to 7.00 |
| C=CC(=O)Nc1cccc(Cl)c1Nc1ncc2cc(-c3cc(C(N)=O)ccc3C)ccc2n1 [COMPOUND 17] | B (the ratio is ≧200 and <500) | 7.00 to 8.00 |  |
| C#CC(=O)NCc1cccn2c(-c3cc(NC(=O)NCC(F)(F)F)cc(OC(C)C)c3)cnc12 [COMPOUND 20, N-((3-(3-isopropoxy-5-(3-(2,2,2-trifluoroethyl)ureido)phenyl)imidazo[1,2-a]pyridin-8-yl)methyl)propiolamide] |  | 7.00 to 8.00 |  |
| C=CC(=O)Nc1ccccc1-c1ccn2c(-c3cccc(NC(=O)NCC(F)(F)F)c3)cnc2c1 [COMPOUND 21, N-(2-(3-(3-(3-(2,2,2-trifluoroethyl)ureido)phenyl)imidazo[1,2-a]pyridin-7-yl)phenyl)acrylamide] | B (the ratio is ≧200 and <500) | 6.00 to 7.00 |  |
| C=CC(=O)Nc1cccc(C)c1Nc1ncc(C#Cc2c(Cl)c(OC)cc(OC)c2Cl)cn1 [COMPOUND 24, N-(2-((5-((2,6-dichloro-3,5-dimethoxyphenyl)ethynyl)pyrimidin-2-yl)amino)-3-methylphenyl)acrylamide] |  | 7.00 to 8.00 |  |
| C=CC(=O)Nc1cccc(C)c1Nc1ncc2cc(-c3c(Cl)c(OC)cc(OC)c3Cl)cnc2n1 [COMPOUND 26, N-(2-((6-(2,6-dichloro-3,5-dimethoxyphenyl)pyrido[2,3-d]pyrimidin-2-yl)amino)-3-methylphenyl)acrylamide] |  |  | 6.00 to 7.00 |
| C=C(C)C(=O)Nc1cccc(C)c1Nc1ncc2cc(-c3c(Cl)c(OC)cc(OC)c3Cl)ccc2n1 [COMPOUND 29] |  |  | 6.00 to 7.00 |
| C=CC(=O)Nc1cccc(OC)c1Nc1ncc2cc(-c3c(Cl)c(OC)cc(OC)c3Cl)ccc2n1 [COMPOUND 30, N-(2-((6-(2,6-dichloro-3,5-dimethoxyphenyl)quinazolin-2-yl)amino)-3-methoxyphenyl)acrylamide] |  |  | 6.00 to 7.00 |
| C=CC(=O)Nc1ccc(F)c(C)c1Nc1ncc2cc(-c3c(Cl)c(OC)cc(OC)c3Cl)ccc2n1 [COMPOUND 33] |  | 7.00 to 8.00 |  |
| C=CC(=O)Nc1cccc(C)c1Nc1ncc2cc(-c3c(Cl)c(OC)cc(OC)c3Cl)cc(F)c2n1 [COMPOUND 34, N-(2-((6-(2,6-dichloro-3,5-dimethoxyphenyl)-8-fluoroquinazolin-2-yl)amino)-3-methylphenyl)acrylamide] |  |  | 6.00 to 7.00 |
| C=CC(=O)Nc1cc(F)cc(F)c1Nc1ncc2cc(-c3c(Cl)c(OC)cc(OC)c3Cl)ccc2n1 [COMPOUND 36] | B (the ratio is ≧200 and <500) | 6.00 to 7.00 |  |
| C=CC(=O)Nc1ccccc1Nc1ncc2cc(-c3c(Cl)c(OC)cc(OC)c3Cl)c(=O)n(C)c2c1C [COMPOUND 40, N-(2-((3-(2,6-dichloro-3,5-dimethoxyphenyl)-1,8-dimethyl-2-oxo-1,2-dihydro-1,6-naphthyridin-7-yl)amino)phenyl)acrylamide] |  | 6.00 to 7.00 |  |
| C=CC(=O)Nc1cccc(C)c1Nc1ncc2cc(-c3c(Cl)c(OC)cc(OC)c3Cl)cc(OC)c2n1 [COMPOUND 41] |  |  | 6.00 to 7.00 |
| C=CC(=O)Nc1cccc(C)c1Nc1ncc2cc(-c3c(Cl)c(OC)cc(OC)c3Cl)c(=O)n(C)c2n1 [COMPOUND 43, N-(2-((6-(2,6-dichloro-3,5-dimethoxyphenyl)-8-methyl-7-oxo-7,8-dihydropyrido[2,3-d]pyrimidin-2-yl)amino)-3-methylphenyl)acrylamide] |  |  | 6.00 to 7.00 |
| C=CC(=O)Nc1cccc(C)c1Nc1ncc2nc(-c3c(Cl)c(OC)cc(OC)c3Cl)c(=O)n(C)c2n1 [COMPOUND 45, N-(2-((6-(2,6-dichloro-3,5-dimethoxyphenyl)-8-methyl-7-oxo-7,8-dihydropteridin-2-yl)amino)-3-methylphenyl)acrylamide] | E (the ratio is ≧10 and <50) |  |  |
| C=CC(=O)Nc1ccccc1Nc1ncc(Cl)c(N2CCN(C(=O)Nc3cccc(C(F)(F)F)c3)CC2)n1 [COMPOUND 50, 4-(2-((2-acrylamidophenyl)amino)-5-chloropyrimidin-4-yl)-N-(3-(trifluoromethyl)phenyl)piperazine-1-carboxamide] |  | 6.00 to 7.00 |  |
| C=CC(=O)Nc1cc(C(=O)NC2CCN(C)CC2)ccc1Nc1ncc(C)c(N2CCN(C(=O)Nc3ccc(C#N)cc3)CC2)n1 [COMPOUND 54, 4-(2-((2-acrylamido-4-((1-methylpiperidin-4-yl)carbamoyl)phenyl)amino)-5-methylpyrimidin-4-yl)-N-(4-cyanophenyl)piperazine-1-carboxamide] |  | 7.00 to 8.00 |  |
| C=CC(=O)N(CCCCN(CC)CC)c1ncc2cc(-c3c(Cl)c(OC)cc(OC)c3Cl)c(NC(=O)NC(C)(C)C)nc2n1 [COMPOUND 55, N-(7-(3-(tert-butyl)ureido)-6-(2,6-dichloro-3,5-dimethoxyphenyl)pyrido[2,3-d]pyrimidin-2-yl)-N-(4-(diethylamino)butyl)acrylamide] |  |  | 7.00 to 8.00 |

Other lines, results leading:

| Ratio FGFR1/FGFR4 (wild type FGFR-4) | pIC50 (wild type FGFR-4) | pIC50 (wild type FGFR-1) | Structure (SMILES) |
| --- | --- | --- | --- |
| C (the ratio is ≧100 and <200) |  |  | C=CC(=O)N(C)c1ncc2cc(-c3cc(OC)cc(OC)c3)ccc2n1 [COMPOUND 1] |
| A (the ratio is >500) | 7.00 to 8.00 | < 6.00 | C=CC(=O)N(C)c1ncc2cc(-c3cc(OC)cc(OC)c3)c(=O)n(C)c2n1 [COMPOUND 3] |
| B (the ratio is ≧200 and <500) | 6.00 to 7.00 | < 6.00 | C=CC(=O)N(C)c1ncc2nc(-c3cc(OC)cc(OC)c3)c(=O)n(C)c2n1 [COMPOUND 4] |
| E (the ratio is ≧10 and <50) |  |  | C=CC(=O)Nc1cccc(C)c1Nc1ncc2cc(-c3cc(OC)cc(OC)c3)cnc2n1 [COMPOUND 10, N-(2-((6-(3,5-dimethoxyphenyl)pyrido[2,3-d]pyrimidin-2-yl)amino)-3-methylphenyl)acrylamide] |
| D (the ratio is ≧50 and <100) | 7.00 to 8.00 |  | C=CC(=O)Nc1cccc(C)c1Nc1ncc2cc(-c3c(Cl)cccc3Cl)ccc2n1 [COMPOUND 13] |
| B (the ratio is ≧200 and <500) | 7.00 to 8.00 |  | C=CC(=O)Nc1ccccc1Nc1cc2c(cn1)cc(-c1cc(OC)cc(OC)c1)c(=O)n2C [COMPOUND 15] |
| E (the ratio is ≧10 and <50) | 7.00 to 8.00 |  | C=CC(=O)Nc1cccc(C)c1Nc1ncc2cc(-c3c(Cl)ccc(OC)c3F)ccc2n1 [COMPOUND 17A] |
| B (the ratio is ≧200 and <500) | 7.00 to 8.00 |  | C=CC(=O)Nc1cccc(C)c1Nc1ncc2cc(-c3c(Cl)cccc3Cl)c(=O)n(C)c2n1 [COMPOUND 22] |
| D (the ratio is ≧50 and <100) | 6.00 to 7.00 |  | C=CC(=O)Nc1cccc(C)c1Oc1ncc2cc(-c3c(Cl)c(OC)cc(OC)c3Cl)ccc2n1 [COMPOUND 25A] |
| C (the ratio is ≧100 and <200) |  |  | C=CC(=O)Nc1cc(F)cc(C)c1Nc1ncc2cc(-c3c(Cl)c(OC)cc(OC)c3Cl)ccc2n1 [COMPOUND 32] |
| E (the ratio is ≧10 and <50) |  |  | C=CC(=O)Nc1cccc(C)c1Nc1cc2c(cn1)cc(-c1c(Cl)c(OC)cc(OC)c1Cl)c(=O)n2C [COMPOUND 39] |
|  |  | 7.00 to 8.00 | C=CC(=O)Nc1cccc(C)c1Nc1ncc2cc(-c3c(Cl)c(OC)cc(OC)c3Cl)c(OC)cc2n1 [COMPOUND 42, N-(2-((6-(2,6-dichloro-3,5-dimethoxyphenyl)-7-methoxyquinazolin-2-yl)amino)-3-methylphenyl)acrylamide] |
| E (the ratio is ≧10 and <50) | 6.00 to 7.00 |  | C=CC(=O)Nc1ccccc1Nc1cc2nc(NC(=O)NC(C)(C)C)c(-c3cc(OC)cc(OC)c3)cc2cn1 [COMPOUND 44] |
|  | 7.00 to 8.00 |  | C=CC(=O)Nc1cc(Cl)cc(C)c1Nc1ncc2cc(-c3c(Cl)c(OC)cc(OC)c3Cl)ccc2n1 [COMPOUND 49] |
